# Columns and labels:
# [1] = between pH 1 and 14; cited from earlier work
# [2] = for D50 determined by LDS after curing / D90 determined by LDS after curing: after curing at 130° C., storage at 25° C. for (at least) 1 month
# Procedure: Laser Diffraction Spectrometry (LDS) was used to determine the Particle Size Distribution (PSD) and the determination of the presence of aggregates.
# Particle Size Distribution ([…]).
# The particle size distribution of sample was measured by using a Helos particle size analyser using a R1 lense with an Aspiros feeder using a dispersing dry process on 50 mg of glycopyrronium salt product.
# (§1) Determination of Presence of Aggregates (MALVERN).
# The presence of aggregates in a sample was determined by using a Malvern Mastersizer 2000 instrument. For example: 100 mg of glycopyrronium salt were mixed with 5 ml of a previously prepared saturated solution of glycopyrronium salt in n-heptane containing 0.2 wt. % of Span-20. Ultrasonic treatment of the samples was performed for 2 minutes.
# [3] = Amorphous content by Dynamic Vapor Sorption Analysis (DVS), water uptake method; type: physicochemical; conditions: after the curing step
# Procedure: Dynamic Vapor Sorption Analysis (DVS):
# The experiments were performed in a Mettler Toledo TGA/DSC 1 LF instrument equipped with a LF SDTA FRS2 sensor and coupled with a Modular Humidity Generator MHG 32. The samples were weighted into 150 μL platinum crucibles. Data collection and evaluation was done with STARe software. A water uptake method was used to determine the amorphous content. In this method, the relative mass difference at a specific relative humidity (20%) prior to and post humidity-induced crystallization was compared. Assuming no solvate or hydrate formation, the difference in uptake between partially amorphous and recrystallized material is directly proportional to the initial amount of amorphous material in the sample. A purely amorphous sample (reference sample) was used as amorphous standard. The water uptake of a sample is proportional to the amount of amorphous content present in the sample.
# [4] = Determination of presence of aggregates / agglomerated material (Malvern); type: physicochemical; conditions: after the curing step
# Description: as §1
# [5] = after curing at 70° C., vacuum, 6 hours, FIG. 1: after storage at 25° C. for 1 month
Molecule,ionization [1],"D50 after the curing step (agglomerated material, FIG. 1) [2, 5] [μm]","D90 after the curing step (agglomerated material, FIG. 1) [2, 5] [μm]",amorphous content as determined by DVS [3] [wt. %],agglomerated material observed [4],D50 determined by LDS after curing [2] [μm],D90 determined by LDS after curing [2] [μm],amorphous content as determined by DVS (in words) [3]
"C[N+]1(C)CC[C@@H](OC(=O)[C@@](O)(c2ccccc2)C2CCCC2)C1 (racemic) [Glycopyrronium bromide, (3RS)-3-[(2SR)-(2-cyclopentyl-2-hydroxy-2-phenylacetyl)oxy]-1,1-dimethylpyrrolidinium bromide]",completely ionized,,,,,,,
"glycopyrronium bromide [Example 1, reference compound]",,60.27,888.59,1.8,significant amount of agglomerated material,,,
glycopyrronium bromide [Example 2],,,,,no agglomerated material was observed,1.45,3.39,No amorphous content was detected
glycopyrronium bromide [Example 3],,,,,no agglomerated material was observed,1.46,3.36,No amorphous content was detected
glycopyrronium bromide [Example 4],,,,,no agglomerated material was observed,1.45,3.26,No amorphous content was detected
glycopyrronium bromide [Example 5],,,,,no agglomerated material was observed,1.43,3.28,No amorphous content was detected
glycopyrronium bromide [Example 6],,,,,no agglomerated material was observed,1.48,3.11,No amorphous content was detected

# Reference: patent US10888500B2, “Particle size stabilization process” (INKE, S.A., priority 2016, dated 2021)
